According to ChEMBL document CHEMBL1132509, “Aminoisoquinolines: design and synthesis of an orally active benzamidine isostere for the inhibition of factor XA” (Bioorg Med Chem Lett, 1999):

How the values were obtained:
Serine protease 1 = Serine protease 1 (Homo sapiens, UniProt P07477); assay: In vitro evaluation of inhibitory activity against trypsin
[1] = pKa value was determined.; format: physicochemical
Prothrombin = Prothrombin (Homo sapiens, UniProt P00734); assay: In vitro evaluation of inhibitory activity against Coagulation factor II in prothrombinase complex
Coagulation factor X = Coagulation factor X (Bos taurus, UniProt P00743); assay: In vitro evaluation of inhibitory activity against Coagulation factor X in prothrombinase complex
Coagulation factor X, sequence (P00743 41-180 limits assumed): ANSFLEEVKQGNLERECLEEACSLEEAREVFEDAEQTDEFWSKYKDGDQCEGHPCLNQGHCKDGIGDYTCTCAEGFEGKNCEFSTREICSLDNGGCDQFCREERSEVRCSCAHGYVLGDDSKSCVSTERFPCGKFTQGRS
Coagulation factor X, sequence (P00743 234-492 limits assumed): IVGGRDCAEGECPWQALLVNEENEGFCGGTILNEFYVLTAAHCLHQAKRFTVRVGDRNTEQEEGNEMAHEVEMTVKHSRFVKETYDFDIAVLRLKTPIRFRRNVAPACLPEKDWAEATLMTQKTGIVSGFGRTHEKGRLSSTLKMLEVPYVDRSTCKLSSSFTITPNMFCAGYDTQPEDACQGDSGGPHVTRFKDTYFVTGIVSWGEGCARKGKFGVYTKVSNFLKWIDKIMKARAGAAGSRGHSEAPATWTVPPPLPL

[2] = Maximum concentration in plasma was reported at 0.5 hour; format: ADME, organism-based; conditions: read-out: CPmax
[3] = Ratio of inhibitory activity against […] to that of factor Xa
[4] = Ratio of inhibitory activity against plasminogen activator to that of factor Xa
[5] = Ratio of inhibitory activity against activated protein C to that of factor Xa
[6] = Ratio of inhibitory activity against Plasmin to that of factor Xa
[7] = Ratio inhibitory activity against coagulation factor IIa to that of factor Xa
[8] = Maximum concentration in plasma was reported at 2 hour; format: ADME, organism-based; conditions: read-out: CPmax

Serine protease 1, sequence (P07477 whole entry): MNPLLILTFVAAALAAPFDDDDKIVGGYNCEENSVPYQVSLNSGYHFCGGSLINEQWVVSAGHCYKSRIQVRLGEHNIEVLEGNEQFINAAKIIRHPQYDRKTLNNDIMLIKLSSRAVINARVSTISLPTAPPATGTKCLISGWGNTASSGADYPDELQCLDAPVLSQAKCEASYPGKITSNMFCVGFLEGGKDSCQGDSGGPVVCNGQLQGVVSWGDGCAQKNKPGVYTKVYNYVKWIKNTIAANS

| Ki (Serine protease 1) [µM] | pKa [1] | Ki (Prothrombin) [µM] | Ki (Coagulation factor X) [µM] | Compound | other results |
| --- | --- | --- | --- | --- | --- |
| > 2.9 | 5.3 | > 4 | 1.6 | COc1ccc2ccc(S(=O)(=O)N(C)[C@H]3CCN(Cc4ccc5ncnc(N)c5c4)C3=O)cc2c1 |  |
| > 2.9 | 7.3 | ~4 | 0.37 | COc1ccc2ccc(S(=O)(=O)NC3CCN(Cc4ccc5ccc(N)nc5c4)C3=O)cc2c1 (stereo not drawn) |  |
|  |  |  | > 1.2 | COc1ccc2ccc(S(=O)(=O)N[C@H]3CCN(Cc4ccc5ccnc(Cl)c5c4)C3=O)cc2c1 |  |
| > 2.9 |  | ~4 | 0.25 | COc1ccc2ccc(S(=O)(=O)NC3CCN(Cc4cc5c(N)nccc5s4)C3=O)cc2c1 (stereo not drawn) |  |
|  |  |  |  | COc1ccc2ccc(S(=O)(=O)N(C)[C@H]3CCN(Cc4csc(C(=N)N)c4)C3=O)cc2c1 | Cmax [2]: 3100 nM |
|  |  |  | 0.006 | COc1ccc2ccc(S(=O)(=O)N[C@H]3CCN(Cc4cc(C(=N)N)ccc4N)C3=O)cc2c1 |  |
|  |  |  | 0.89 | COc1ccc2ccc(S(=O)(=O)N[C@H]3CCN(Cc4cc5c(N)nccc5cc4OC)C3=O)cc2c1 |  |
| > 2.9 | 7.3 | > 4 | 1.2 | COc1ccc2ccc(S(=O)(=O)NC3CCN(Cc4ccc5nc(N)ccc5c4)C3=O)cc2c1 (stereo not drawn) |  |
|  |  |  | > 1.2 | COc1ccc2ccc(S(=O)(=O)N[C@H]3CCN(Cc4ccc5ccnc(O)c5c4)C3=O)cc2c1 |  |
| > 2.9 | 7.6 | 1.35 |  | COc1ccc2ccc(S(=O)(=O)N[C@H]3CCN(Cc4ccc5ccnc(N)c5c4)C3=O)cc2c1 |  |
|  |  |  |  | Nc1nccc2ccc(CN3CC[C@H](NS(=O)(=O)c4cc5ncccc5s4)C3=O)cc12 | Ratio [3]: > 131; Ratio [4]: > 395; Ratio [5]: > 841; Ratio [6]: > 330; Cmax [8]: 2700 nM; Ratio [7]: > 181 |
|  |  |  | 0.08 | COc1ccc2ccc(S(=O)(=O)N[C@H]3CCN(Cc4cc5c(N)nccc5cc4N)C3=O)cc2c1 |  |

| Compound | Ki (Serine protease 1) [µM] | pKa [1] | Ki (Prothrombin) [µM] | Ki (Coagulation factor X) [µM] | other results |
| --- | --- | --- | --- | --- | --- |
| COc1ccc2ccc(S(=O)(=O)N[C@H]3CCN(Cc4cccc(C(=N)N)c4)C3=O)cc2c1 | 0.85 | 11.6 |  |  |  |
| N=C(N)c1cccc(CN2CC[C@H](NS(=O)(=O)c3cc4ncccc4s3)C2=O)c1 |  |  |  | 0.026 | Ratio [3]: > 110; Ratio [4]: > 335; Ratio [5]: 440; Ratio [6]: > 280; Ratio [7]: > 150 |
